According to ChEMBL document CHEMBL1909046, “DrugMatrix in vitro pharmacology data”:

Experiments:
[1] = biological target: T1, Nitric oxide synthase, inducible (Mus musculus, UniProt P29477); design: species or system Escherichia coli;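 note: inhibition of iNOS enzyme activity measured with L-arginine as substrate; in other assays of this panel Not Active means under 50% inhibition at 10 µM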
T1 sequence (P29477 whole entry): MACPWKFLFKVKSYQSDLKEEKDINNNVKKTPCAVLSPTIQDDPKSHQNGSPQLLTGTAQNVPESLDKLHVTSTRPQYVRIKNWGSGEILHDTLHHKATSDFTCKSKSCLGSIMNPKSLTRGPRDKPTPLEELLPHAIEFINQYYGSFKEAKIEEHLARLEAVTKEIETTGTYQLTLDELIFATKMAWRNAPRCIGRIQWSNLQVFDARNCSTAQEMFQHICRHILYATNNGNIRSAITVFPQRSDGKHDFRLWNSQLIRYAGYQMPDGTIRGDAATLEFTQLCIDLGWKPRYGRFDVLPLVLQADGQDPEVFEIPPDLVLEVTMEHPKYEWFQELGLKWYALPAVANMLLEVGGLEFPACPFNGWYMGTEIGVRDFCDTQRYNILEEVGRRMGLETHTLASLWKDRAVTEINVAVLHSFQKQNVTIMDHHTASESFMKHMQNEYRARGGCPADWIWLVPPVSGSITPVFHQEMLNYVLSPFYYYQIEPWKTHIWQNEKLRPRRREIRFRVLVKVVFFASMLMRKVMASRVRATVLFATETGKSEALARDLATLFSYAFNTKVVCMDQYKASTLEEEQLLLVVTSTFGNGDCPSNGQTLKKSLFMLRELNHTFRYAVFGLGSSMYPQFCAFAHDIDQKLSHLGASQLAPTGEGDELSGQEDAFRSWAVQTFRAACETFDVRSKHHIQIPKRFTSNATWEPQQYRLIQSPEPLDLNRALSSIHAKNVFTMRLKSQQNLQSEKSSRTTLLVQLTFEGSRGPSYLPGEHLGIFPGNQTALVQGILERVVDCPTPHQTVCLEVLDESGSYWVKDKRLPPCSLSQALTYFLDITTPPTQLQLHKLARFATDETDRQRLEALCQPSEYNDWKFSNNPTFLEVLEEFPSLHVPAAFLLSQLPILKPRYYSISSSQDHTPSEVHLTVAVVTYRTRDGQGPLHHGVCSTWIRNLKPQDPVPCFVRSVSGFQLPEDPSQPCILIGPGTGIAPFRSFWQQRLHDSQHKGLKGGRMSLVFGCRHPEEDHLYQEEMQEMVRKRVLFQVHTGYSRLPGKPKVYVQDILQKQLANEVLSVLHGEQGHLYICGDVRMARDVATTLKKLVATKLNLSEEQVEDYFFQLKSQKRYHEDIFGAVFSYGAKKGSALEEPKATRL

B2 bradykinin receptor = biological target: T2, B2 bradykinin receptor (Homo sapiens, UniProt P30411); type: cell membranes, Membrane; conditions: chem-1; note: in other assays of this panel Not Active means under 50% inhibition at 10 µM
T2 sequence (P30411 whole entry): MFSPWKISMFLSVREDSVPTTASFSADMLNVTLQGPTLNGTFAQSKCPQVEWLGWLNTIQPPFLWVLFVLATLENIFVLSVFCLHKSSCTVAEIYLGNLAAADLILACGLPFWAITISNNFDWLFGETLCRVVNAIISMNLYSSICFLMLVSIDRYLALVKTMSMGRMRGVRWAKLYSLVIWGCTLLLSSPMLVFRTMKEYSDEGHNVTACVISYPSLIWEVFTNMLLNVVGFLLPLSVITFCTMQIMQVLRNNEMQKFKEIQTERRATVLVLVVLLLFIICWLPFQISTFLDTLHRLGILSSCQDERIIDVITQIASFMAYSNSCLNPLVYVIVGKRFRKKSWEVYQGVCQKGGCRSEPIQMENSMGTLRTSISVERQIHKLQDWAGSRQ

Cytochrome P450 3A4 = Cytochrome P450 3A4 (Homo sapiens, UniProt P08684); conditions: bti-tn-5b1-4; note: in other assays of this panel Not Active means under 50% inhibition at 10 µM
Vasopressin V1a receptor = Vasopressin V1a receptor (Homo sapiens, UniProt P37288); type: cell membranes, Membrane; conditions: hek293; note: in other assays of this panel Not Active means under 50% inhibition at 10 µM
Progesterone receptor = biological target: T3, Progesterone receptor (Bos taurus, UniProt Q690N0); experiment: DRUGMATRIX: Progesterone radioligand binding (ligand: [3H] R-5020); type: tissue-based, Uterus; conditions: Not Active = under 50% inhibition at 10 µM
T3 sequence (Q690N0 whole entry): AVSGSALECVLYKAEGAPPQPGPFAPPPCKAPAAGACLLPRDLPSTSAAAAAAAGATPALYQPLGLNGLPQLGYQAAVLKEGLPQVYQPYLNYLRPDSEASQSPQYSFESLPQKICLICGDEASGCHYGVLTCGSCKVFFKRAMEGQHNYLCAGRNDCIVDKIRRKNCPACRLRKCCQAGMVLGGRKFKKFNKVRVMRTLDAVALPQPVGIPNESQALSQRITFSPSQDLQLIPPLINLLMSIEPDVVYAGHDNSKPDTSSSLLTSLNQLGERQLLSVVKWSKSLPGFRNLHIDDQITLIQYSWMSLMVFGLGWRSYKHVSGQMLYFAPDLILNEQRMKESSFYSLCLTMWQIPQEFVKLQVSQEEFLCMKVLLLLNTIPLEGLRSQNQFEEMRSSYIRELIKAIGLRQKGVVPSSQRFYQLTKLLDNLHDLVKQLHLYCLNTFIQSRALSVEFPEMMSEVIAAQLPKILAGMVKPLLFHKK

[2] = biological target: Vascular endothelial growth factor receptor 1 (Homo sapiens, UniProt P17948); type: cell-based; conditions: huvec; note: in other assays of this panel Not Active means under 50% inhibition at 10 µM
Melanocortin receptor 5 = Melanocortin receptor 5 (Homo sapiens, UniProt P33032); type: cell membranes, HEK293, Membrane; conditions: hek293; note: in other assays of this panel Not Active means under 50% inhibition at 10 µM
Chain of Melanocortin receptor 5 (P33032 whole entry): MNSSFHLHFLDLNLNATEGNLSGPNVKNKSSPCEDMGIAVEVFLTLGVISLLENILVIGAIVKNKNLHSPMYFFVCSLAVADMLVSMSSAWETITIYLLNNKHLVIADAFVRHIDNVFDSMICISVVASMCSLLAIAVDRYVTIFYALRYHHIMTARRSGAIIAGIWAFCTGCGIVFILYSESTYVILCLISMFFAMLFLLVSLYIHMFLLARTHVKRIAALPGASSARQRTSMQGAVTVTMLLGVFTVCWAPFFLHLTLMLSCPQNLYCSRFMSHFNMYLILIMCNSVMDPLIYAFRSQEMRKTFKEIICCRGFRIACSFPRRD

Chain of Vasopressin V1a receptor (P37288 whole entry): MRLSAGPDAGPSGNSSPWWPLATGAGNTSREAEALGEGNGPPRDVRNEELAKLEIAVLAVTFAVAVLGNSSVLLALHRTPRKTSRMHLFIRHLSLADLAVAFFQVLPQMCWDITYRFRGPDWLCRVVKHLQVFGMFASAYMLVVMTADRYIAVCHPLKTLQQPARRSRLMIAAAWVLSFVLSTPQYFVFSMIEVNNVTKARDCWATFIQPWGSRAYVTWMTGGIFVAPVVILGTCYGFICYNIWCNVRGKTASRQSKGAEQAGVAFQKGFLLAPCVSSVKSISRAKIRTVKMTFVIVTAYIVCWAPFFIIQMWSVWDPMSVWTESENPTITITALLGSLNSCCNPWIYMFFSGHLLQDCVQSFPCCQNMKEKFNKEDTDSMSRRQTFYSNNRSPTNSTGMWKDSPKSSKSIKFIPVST
Chain of Cytochrome P450 3A4 (P08684 whole entry): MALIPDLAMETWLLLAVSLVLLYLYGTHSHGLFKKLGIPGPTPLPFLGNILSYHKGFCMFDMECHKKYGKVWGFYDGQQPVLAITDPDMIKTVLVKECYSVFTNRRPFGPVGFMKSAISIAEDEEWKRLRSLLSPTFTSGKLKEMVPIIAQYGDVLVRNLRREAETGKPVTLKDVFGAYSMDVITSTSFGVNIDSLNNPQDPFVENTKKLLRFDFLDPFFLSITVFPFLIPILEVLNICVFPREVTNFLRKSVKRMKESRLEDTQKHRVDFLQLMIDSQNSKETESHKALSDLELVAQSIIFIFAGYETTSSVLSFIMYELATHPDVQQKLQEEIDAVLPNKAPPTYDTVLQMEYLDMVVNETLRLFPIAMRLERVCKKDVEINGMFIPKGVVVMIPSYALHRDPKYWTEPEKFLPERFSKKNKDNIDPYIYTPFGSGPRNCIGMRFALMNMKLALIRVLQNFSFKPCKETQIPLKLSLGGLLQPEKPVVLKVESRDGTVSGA
Chain of Vascular endothelial growth factor receptor 1 (P17948 whole entry): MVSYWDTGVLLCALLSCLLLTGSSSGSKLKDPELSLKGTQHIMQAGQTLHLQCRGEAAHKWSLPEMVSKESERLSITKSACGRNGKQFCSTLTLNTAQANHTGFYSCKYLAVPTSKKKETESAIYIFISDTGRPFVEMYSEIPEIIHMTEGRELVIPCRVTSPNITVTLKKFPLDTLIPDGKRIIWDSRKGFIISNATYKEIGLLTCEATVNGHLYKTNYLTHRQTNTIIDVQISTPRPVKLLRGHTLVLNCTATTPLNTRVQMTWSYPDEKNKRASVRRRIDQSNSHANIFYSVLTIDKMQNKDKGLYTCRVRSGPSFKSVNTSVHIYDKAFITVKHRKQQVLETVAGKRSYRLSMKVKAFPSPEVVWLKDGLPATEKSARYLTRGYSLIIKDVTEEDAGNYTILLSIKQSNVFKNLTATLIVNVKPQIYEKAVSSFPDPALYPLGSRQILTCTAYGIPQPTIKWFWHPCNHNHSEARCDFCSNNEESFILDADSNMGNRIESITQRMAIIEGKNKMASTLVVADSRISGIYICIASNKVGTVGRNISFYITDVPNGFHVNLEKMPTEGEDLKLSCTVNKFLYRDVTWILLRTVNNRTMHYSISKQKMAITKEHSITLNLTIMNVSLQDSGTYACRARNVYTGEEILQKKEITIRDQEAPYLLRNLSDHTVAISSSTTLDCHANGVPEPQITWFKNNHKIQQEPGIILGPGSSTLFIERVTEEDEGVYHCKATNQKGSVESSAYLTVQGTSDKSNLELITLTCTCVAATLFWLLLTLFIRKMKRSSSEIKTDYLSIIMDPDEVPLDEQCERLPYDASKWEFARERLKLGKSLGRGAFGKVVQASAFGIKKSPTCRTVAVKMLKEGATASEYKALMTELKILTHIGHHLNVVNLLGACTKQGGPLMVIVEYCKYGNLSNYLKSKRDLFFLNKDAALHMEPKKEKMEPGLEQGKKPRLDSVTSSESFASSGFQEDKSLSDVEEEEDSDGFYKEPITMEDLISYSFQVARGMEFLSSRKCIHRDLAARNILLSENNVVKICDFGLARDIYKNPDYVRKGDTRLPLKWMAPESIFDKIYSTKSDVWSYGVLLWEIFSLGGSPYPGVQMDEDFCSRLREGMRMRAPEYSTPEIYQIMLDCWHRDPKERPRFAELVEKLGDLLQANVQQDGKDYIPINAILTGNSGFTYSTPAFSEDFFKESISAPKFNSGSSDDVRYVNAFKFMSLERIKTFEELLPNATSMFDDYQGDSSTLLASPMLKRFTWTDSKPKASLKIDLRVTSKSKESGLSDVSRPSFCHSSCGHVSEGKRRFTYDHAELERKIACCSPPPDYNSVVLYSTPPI

CC(=N)S [THIOACETAMIDE]
Not Active: IC50 [1] | IC50 (B2 bradykinin receptor) | IC50 (Cytochrome P450 3A4) | Ki (Cytochrome P450 3A4) | IC50 (Vasopressin V1a receptor) | IC50 (Progesterone receptor) | IC50 [2] | IC50 (Melanocortin receptor 5)

Cc1ccc(C(=O)c2ccc(CC(=O)O)n2C)cc1 [TOLMETIN]
Not Active: IC50 [1] | IC50 (B2 bradykinin receptor) | IC50 (Cytochrome P450 3A4) | Ki (Cytochrome P450 3A4) | IC50 (Vasopressin V1a receptor) | IC50 (Progesterone receptor) | IC50 [2] | IC50 (Melanocortin receptor 5)

CC(=O)OCC(COC(C)=O)OC(C)=O [TRIACETIN]
Not Active: IC50 [1] | IC50 (B2 bradykinin receptor) | IC50 (Cytochrome P450 3A4) | Ki (Cytochrome P450 3A4) | IC50 (Vasopressin V1a receptor) | IC50 (Progesterone receptor) | IC50 [2] | IC50 (Melanocortin receptor 5)

TRANSPLATIN
Not Active: IC50 [1] | Ki [1] | IC50 (B2 bradykinin receptor) | Ki (B2 bradykinin receptor) | IC50 (Cytochrome P450 3A4) | Ki (Cytochrome P450 3A4) | IC50 (Vasopressin V1a receptor) | Ki (Vasopressin V1a receptor) | IC50 (Progesterone receptor) | Ki (Progesterone receptor) | IC50 [2] | Ki [2] | IC50 (Melanocortin receptor 5) | Ki (Melanocortin receptor 5)

ZIRCONIUM(IV) CHLORIDE
Not Active: IC50 [1] | Ki [1] | IC50 (B2 bradykinin receptor) | Ki (B2 bradykinin receptor) | IC50 (Cytochrome P450 3A4) | Ki (Cytochrome P450 3A4) | IC50 (Vasopressin V1a receptor) | Ki (Vasopressin V1a receptor) | IC50 (Progesterone receptor) | Ki (Progesterone receptor) | IC50 [2] | Ki [2] | IC50 (Melanocortin receptor 5) | Ki (Melanocortin receptor 5)
